In one assay the target is human MC3R. The experiment in a line: Human MC3R radioligand binding assay ([125I] NDP-MSH). The settings on record: Table 6, hMCR binding selectivity. As to the method:
(§1) Radioligand binding assays were carried out using commercial or in-house prepared hMC1 R, hMC3R and hMC4R membranes and [^125I]
(§2) In-house plasma membranes were prepared from transfected mammalian cells (prepared as in Example 109, using plasmid DNA containing the human MC1 R, MC3R or MC4R gene or other gene of interest in a plasmid vector with a mammalian origin of replication): • Adherent cells were washed with warm Hanks buffered saline solution (HBSS). 1 mL of cold HBSS was added to each flask and the cells were scraped off with a rubber policeman. The scraped cells were added to a 50 mL tube on ice. The plates were then rinsed twice with 5 mL cold HBSS and this was also added to the tube. The cells were centrifuged at 1000 x g for 5 mins in a bench top centrifuge and the supernatant was decanted. The remaining cell pellet was resuspended in 0.25 M sucrose. The cell suspension was centrifuged again as previously and the pellet resuspended in 5 mL of 0.25 M sucrose containing protease inhibitors. The cells were homogenised by a 10 second pulse with an Ika disperser followed by 30 seconds on ice. The homogenisation and ice incubation was repeated three times. The mixture was then centrifuged at 1260 x g for 5 mins. […]

For the next assay, the target named is human MC1R. The experiment in a line: Human MC1R radioligand binding assay ([125I] NDP-MSH). The following applies: Table 6, hMCR binding selectivity. As to the method:
as §1, §2

Another assay addresses human MC4R. Nature of the assay: Human MC4R radioligand binding assay ([125I] NDP-MSH). The following applies: Table 6, hMCR binding selectivity. As to the method:
as §1, §2

In the next assay the target is T1, human MC5R (Homo sapiens, UniProt P33032).
T1 construct: purchased Perkin Elmer RBXMC5M400UA
Nature of the assay: Human MC5R radioligand binding assay ([125I] NDP-MSH displacement, hMC5R membranes). The settings on record: compounds tested as trifluoroacetate or hydrochloride salts, or as free base. Put shortly:
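Bound ligand collected by filtration on PEI-soaked GF/A filters and counted. Data fitted to a single-site competition model with fixed Hill coefficient to give EC50.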

[1] abbreviates: hMC5R binding assay as in Example 102.

Some results are limits rather than exact numbers.

T1 sequence (P33032 whole entry): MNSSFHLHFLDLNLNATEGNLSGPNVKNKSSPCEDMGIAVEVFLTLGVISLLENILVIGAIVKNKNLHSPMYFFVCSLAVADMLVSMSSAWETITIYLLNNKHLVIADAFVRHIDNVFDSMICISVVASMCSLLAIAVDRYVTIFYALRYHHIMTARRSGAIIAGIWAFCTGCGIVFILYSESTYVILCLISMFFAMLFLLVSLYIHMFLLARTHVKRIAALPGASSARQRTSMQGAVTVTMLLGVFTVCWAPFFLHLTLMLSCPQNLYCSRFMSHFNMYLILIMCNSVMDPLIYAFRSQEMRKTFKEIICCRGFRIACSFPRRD

As to `O=C(/C=C/c1ccc(Cl)cc1)NC[C@@H]1CCN(CC(c2ccccc2)c2ccccc2)C(=O)[C@H](CCN2CCCCC2)N1` [Compound 33, (E)-3-(4-chlorophenyl)-N-(((3S,5S)-1-(2,2-diphenylethyl)-2-oxo-3-(2-(piperidin-1-yl)ethyl)-1,4-diazepan-5-yl)methyl)acrylamide], the figures for the IC50 at human MC3R, at human MC1R and on human MC4R were 1500 nM, 2850 nM and 6060 nM, respectively.

As for `N=C(N)NCCC[C@@H]1N[C@H](CNC(=O)c2ccc3ccccc3c2)CCN(CC(c2ccccc2)c2ccccc2)C1=O` [Compound 105, N-(((3S,5S)-1-(2,2-diphenylethyl)-3-(3-guanidinopropyl)-2-oxo-1,4-diazepan-5-yl)methyl)-2-naphthamide], the IC50 on human MC1R was 6660 nM; at human MC4R, 3280 nM. With `CCC(CC)CN1CC[C@@H](CNC(=O)/C=C/c2ccc(Cl)cc2)N[C@@H](CCN2CCCCC2)C1=O` [Compound 348, (E)-3-(4-chlorophenyl)-N-(((3S,5S)-1-(2-ethylbutyl)-2-oxo-3-(2-(piperidin-1-yl)ethyl)-1,4-diazepan-5-yl)methyl)acrylamide], the IC50 on human MC3R worked out at 1830 nM.

With `CCN(CC)CC[C@@H]1N[C@H](CNC(=O)/C=C/c2ccc(Cl)cc2)CCN(CC(c2ccccc2)c2ccccc2)C1=O` [Compound 378, (E)-3-(4-chlorophenyl)-N-(((3S,5S)-3-(2-(diethylamino)ethyl)-1-(2,2-diphenylethyl)-2-oxo-1,4-diazepan-5-yl)methyl)acrylamide], on human MC5R (hMC5R assay as in Example 102), the IC50 is below 100 nM. Take `CCC(CN1CCC(CNC(=O)c2ccc3cc(Cl)ccc3c2)N[C@@H](C2CCNCC2)C1=O)c1ccccc1` (stereo partly drawn) [Compound 472, (S)-6-chloro-N-((2-oxo-1-(2-phenylbutyl)-3-(piperidin-4-yl)-1,4-diazepan-5-yl)methyl)-2-naphthamide]: the IC50 on human MC5R (hMC5R assay as in Example 102) was below 100 nM. Still for that read-out and setting: for `CCC(CN1CCC(CNC(=O)c2ccc3cc(Cl)ccc3c2)N[C@@H](C2CCN(CCC(C)C)CC2)C1=O)c1ccccc1` (stereo partly drawn) [Compound 473] the value was below 100 nM. In the case of `CC[C@H](CN1CC[C@H](CNC(=O)c2ccc3cc(Cl)ccc3c2)N[C@H](CC(C)(C)N)C1=O)c1ccccc1` [Compound 494, N-(((3R,5R)-3-(2-amino-2-methylpropyl)-2-oxo-1-((S)-2-phenylbutyl)-1,4-diazepan-5-yl)methyl)-6-chloro-2-naphthamide], the IC50 at human MC5R (setting [1]) is below 10000 nM.

In the case of `CC[C@H](CN1CC[C@@H](CNC(=O)c2ccc3cc(Cl)ccc3c2)N[C@@H](CCN2CCCCC2)C1=O)c1ccccc1` [Compound 569, 6-chloro-N-(([5-^13C,4-^15N](3S,5S)-2-oxo-1-((S)-2-phenylbutyl)-3-(2-(piperidin-1-yl)ethyl)-1,4-diazepan-5-yl)[^13C]methyl)-2-naphthamide], the IC50 at human MC5R (setting [1]) was below 10 nM.

Turning to `CC[C@@H](CN1CC[C@H](CNC(=O)c2ccc3cc(Cl)ccc3c2)N[C@H](CCN2CCCCC2)C1=O)c1ccccc1` [Compound 580, 6-chloro-N-(((3R,5R)-2-oxo-1-((R)-2-phenylbutyl)-3-(2-(piperidin-1-yl)ethyl)-1,4-diazepan-5-yl)methyl)-2-naphthamide], the IC50 at human MC5R (setting [1]) is below 1000 nM. On the same count and under the same terms, then `CC[C@H](CN1CC[C@H](CNC(=O)c2ccc3cc(Cl)ccc3c2)N[C@@H](CCN2CCCCC2)C1=O)c1ccccc1` [Compound 581, 6-chloro-N-(((3S,5R)-2-oxo-1-((S)-2-phenylbutyl)-3-(2-(piperidin-1-yl)ethyl)-1,4-diazepan-5-yl)methyl)-2-naphthamide], with below 100 nM; and `CC[C@@H](CN1CC[C@H](CNC(=O)c2ccc3cc(Cl)ccc3c2)N[C@@H](CCN2CCCCC2)C1=O)c1ccccc1` [Compound 583, 6-chloro-N-(((3S,5R)-2-oxo-1-((R)-2-phenylbutyl)-3-(2-(piperidin-1-yl)ethyl)-1,4-diazepan-5-yl)methyl)-2-naphthamide], with below 1000 nM; and `CC[C@H](CN1CC[C@H](CNC(=O)c2ccc3cc(Cl)ccc3c2)N[C@H](CCN2CCCCC2)C1=O)c1ccccc1` [Compound 585, 6-chloro-N-(((3R,5R)-2-oxo-1-((S)-2-phenylbutyl)-3-(2-(piperidin-1-yl)ethyl)-1,4-diazepan-5-yl)methyl)-2-naphthamide], with below 10000 nM.

The term IC50 denotes the concentration that gives 50% inhibition.

(Values after patent EP2257297B1, “COMPOUNDS FOR USE IN THE TREATMENT OF ACNE, SEBORRHOEA AND SEBHORROEIC DERMATITIS, OR FOR REDUCING SEBUM SECRETION” (priority 2008, dated 2009).)
